Assay results from US20200129476A1, “PARP Inhibitor in Combination with a Glucocorticoid and/or Ascorbic Acid and/or a Protein Growth Factor for the Treatment of Impaired Wound Healing” (AKRIBES BIOMEDICAL GMBH, priority 2017, published 2020).
“Also recorded” adds a separate entry of the source.

Key:
[1] = system: primary human dermal fibroblasts (HDF); test: Primary human dermal fibroblast (HDF) proliferation assay (2D), with or without wound exudate; format: cell-based; settings: for cell proliferation under wound exudate-induced inhibition: FIG. 22, WE #43 and #78 used with veliparib; for HDF proliferation, PARP inhibitor plus PDGF: PARP inhibitor dose series + PDGF 20 ng/ml, WE #78 (FIG. 18); for enhancement of PARP inhibitor effect on fibroblast proliferation: added to PARP inhibitor titration
Experimental: (§1) Primary human dermal fibroblasts (HDF) were purchased from CELLnTEC, Bern. They were routinely grown in Dulbecco's modified Eagle's medium (DMEM) containing 10% FCS, 2 mM glutamine, and 100 U/ml penicillin/100 μg/ml streptomycin. Media, antibiotics, and glutamine were bought from Lonza. The cells were used at passage 5-15. Cells were trypsinized and seeded at 5000 cells/well in 200 μl into the inner wells of 96-well plates. The outer wells were loaded with sterile water. The cells were allowed to adhere overnight and then incubated for 72 hours at 37° C. under the following conditions: graded compound concentrations or 20 ng/ml PDGF-BB (Tonbo Biosciences) in the absence or presence of different dilutions of sterile-filtered WE in medium. For control samples, 200p1 medium was added instead of specific stimuli. Alternatively, the cells were seeded into 384-well plates at 2500 cells/well directly together with test compounds or growth factors and WE or medium in a total volume of […].
(§2) At the end of the 72-hour incubation period, supernatants were removed for the determination of IL-1ß, and the cells were fixed with 4% paraformaldehyde (Morphisto) for 15 minutes at room temperature and washed 3 times with PBS. A control plate was fixed after the overnight adherence of the cells (day 1) to determine the starting cell number.
Total cellular protein was determined as a measure of cell number by staining the fixed cells with sulforhodamine B (SRB, Sigma). A 0.4% SRB solution in 1% acetic acid was added to the wells for 30 minutes. The wells were then washed with 1 acetic acid until the wash solution remained colorless. After drying, the dye was eluted with 10 mM Tris.HCl, pH8.5, and absorbance was measured either at 550 or 492 nm for lower and higher cell densities, respectively. The average absorbance of the sample representing the day 1 starting cell number (for 96-well plates) was subtracted from the absorbance values of the WE-treated cells.
All experiments were carried out in triplicate for each sample and concentration, and means±standard deviation (SD) were used for the evaluation of the experiment. Results are expressed as percentage of control values for unstimulated cells.
(§3) Low molecular weight compounds (see list in Table 1) were dissolved in DMSO (Bioreagent for cell culture, Sigma) at 10 mM or 100 mM and diluted at least 1:1000 in medium for cellular assays (final DMSO concentration ≤0.1%).
(§4) Cells were incubated with compounds for 72 hours in proliferation assays and up to 8 days for FDM assay (refreshed after 4 days). When compounds were tested for their effect on WE stimulation, the incubation of cells with compounds was started and ended simultaneously with WE-incubation.

IL-1ß = IL-1ß secretion by HDF in the presence of wound exudate (ELISA); format: cell-based, human; settings: FIG. 22; WE #43 and #78 used with veliparib
Experimental: as §1, §2
IL-1ß levels were determined with a commercial ELISA kit. The amount of IL-1ß contained in the wound exudate added to the cells was subtracted from the total IL-ß in the supernatants in order to determine the cytokine secreted by the cells.

[2] = system: primary human dermal fibroblasts (HDF); test: Fibroblast-derived matrix (FDM) formation assay (3D), with or without wound exudate; format: cell-based; settings: for FDM formation, veliparib combined with glucocorticoid: WE #78, patient with diabetes, immunosuppression after kidney transplantation (FIG. 7)
Experimental: HDF cells were seeded at 5000 cells/well on day −3 into 96-well tissue culture plates (1250 cells/well for 384-well plates), which had been pre-coated for 1 hour at 37° C. with 0.2% gelatin solution (Sigma). When the cells reached confluence (=day 0), a matrix promoting supplement (vitamin C: 2-phospho-L-ascorbic acid trisodium salt, 100 μg/ml; Sigma) was added together with test samples containing PDGF-BB, TGF-ß1 or graded concentrations of compounds −/+WE as described for the HDF proliferation assay. After 4 days, medium was replaced by fresh vitamin C- and stimulus- as well as compound-containing medium, maintaining the conditions initiated on day 0. TGF-ß1 and PDGF-BB were included as positive controls to promote FDM formation and cell growth, respectively. After a total incubation time of 8 days, FDM production was measured in fixed cultures via SRB staining and evaluated as described above. In some cases, the experiment was stopped and evaluated already on day 4.
as §3, with “≤0.1%). Compounds were typically tested in half-logarithmic dilution series (1:3.33), starting at 10 μM or 100 μM as the highest compound concentration.” for “≤0.1%).”
as §4

[3] = system: alpha-smooth muscle actin (α-SMA); test: Immunolocalization of alpha-smooth muscle actin in 2D fibroblast culture (myofibroblast differentiation); format: cell-based, human; settings: TGF-ß 20 ng/ml
Experimental: as §1, with “The cells were allowed to adhere overnight and then incubated for 72 hours at 37° C. under the following conditions: graded compound concentrations or 20 ng/ml PDGF-BB (Tonbo Biosciences) in the absence or presence of different dilutions of sterile-filtered WE in medium.” left out
After fixation with paraformaldehyde, the cells were incubated for 1 hour at room temperature with a monoclonal mouse-anti-human antibody against alpha-smooth muscle actin (α-SMA) from e-Bioscience, washed 3 times with PBS and developed with an Alexa Fluor-labelled donkey-anti-mouse IgG (Molecular Probes). The cells were washed 3 times with PBS and examined in a Zeiss ZEISS Observer.Z1 microscope, using the software AxioVision 48.

[4] = presence of WE #78 (diabetic patient)
[5] = presence of wound exudate (WE) of patients, several or unspecified WE
[6] = presence of ⅔ of the wound exudates tested
[7] = absence of wound exudate (normal medium)

Oc1cccc2c(O)nccc12 [1,5-IQD, 1,5-Isoquinolinediol]
fibroblast (HDF) proliferation ([1]; presence of WE #43): less active or inactive
fibroblast (HDF) proliferation [1, 4]: less active or inactive

NC(=O)c1cccc(N)c1 [3-AB, 3-Aminobenzamide]
fibroblast (HDF) proliferation ([1]; presence of WE #43): less active or inactive
fibroblast (HDF) proliferation [1, 4]: less active or inactive

CN(C)Cc1ccc(-c2nc3cccc4c3n2CCNC4=O)cc1 [AG-14361]
IL-1ß secretion induced by wound exudate (IL-1ß): reducing IL-1ß secretion
fibroblast-derived matrix (FDM) formation ([2]; presence of WE #78 (FIG. 9)): strong positive effect
cell proliferation under wound exudate-induced inhibition [1]: enhanced cell proliferation

COC1CCN(C(=O)c2cc(Cc3n[nH]c(=O)c4ccccc34)ccc2F)CC1 [AZD-2461]
IL-1ß secretion induced by wound exudate (IL-1ß): reducing IL-1ß secretion
fibroblast-derived matrix (FDM) formation ([2]; presence of WE #78 (FIG. 9)): strong positive effect
cell proliferation under wound exudate-induced inhibition [1]: enhanced cell proliferation

CN(C)CC(=O)Nc1ccc2[nH]c(=O)c3ccccc3c2c1.Cl [PJ-34, N-(6-Oxo-5,6-dihydro-phenanthridin-2-yl)-N,N-dimethylacetamide.HCl]
fibroblast (HDF) proliferation ([1]; presence of WE #43): less active or inactive
fibroblast (HDF) proliferation [1, 4]: less active or inactive

C[C@H]1C[C@H]2[C@@H]3CCC4=CC(=O)C=C[C@]4(C)[C@@]3(Cl)[C@@H](O)C[C@]2(C)[C@@]1(O)C(=O)CO [beclomethasone]
fibroblast (HDF) proliferation [1, 5]: Qualitatively identical results

CC1(COc2ccc3c(c2)ncn3-c2ccc3cccc(N4CCC(N)CC4)c3n2)COC1 [crenolanib, Crenolanib]
effect on PDGF-enhanced proliferation ([1]; crenolanib 1 μM, PDGF 20 ng/ml, absence of WE (FIG. 19)): completely abrogated
fibroblast (HDF) proliferation [1, 4]: without any effect

C[C@@H]1C[C@H]2[C@@H]3C[C@H](F)C4=CC(=O)C(Cl)=C[C@]4(C)[C@@]3(F)[C@@H](O)C[C@]2(C)[C@@]1(O)C(=O)CO [halomethasone]
fibroblast (HDF) proliferation [1, 5]: Qualitatively identical results

C[C@]12CCC(=O)C=C1CC[C@@H]1[C@@H]2[C@@H](O)C[C@@]2(C)[C@H]1CC[C@]2(O)C(=O)CO [hydrocortisone, Hydrocortisone]
fibroblast (HDF) proliferation [1, 5]: Qualitatively identical results; also recorded: effect was confirmed

O=C(c1cc(Cc2n[nH]c(=O)c3ccccc23)ccc1F)N1CCN(C(=O)C2CC2)CC1 [olaparib]
IL-1ß secretion induced by wound exudate (IL-1ß): reducing IL-1ß secretion
fibroblast-derived matrix (FDM) formation ([2]; presence of WE #78 (FIG. 9)): strong positive effect
cell proliferation under wound exudate-induced inhibition [1]: enhanced cell proliferation
HDF proliferation, PARP inhibitor plus PDGF [1]: even further enhanced by the addition of PDGF
fibroblast (HDF) proliferation [1, 4]: dose-dependent increase of HDF proliferation

C[C@]12C=CC(=O)C=C1CC[C@@H]1[C@@H]2[C@@H](O)C[C@@]2(C)[C@H]1CC[C@]2(O)C(=O)CO [prednisolone, Prednisolone]
fibroblast (HDF) proliferation [1, 5]: Qualitatively identical results; also recorded: effect was confirmed

C[C@]12C=CC(=O)C=C1CC[C@@H]1[C@@H]2[C@@H](O)C[C@@]2(C)[C@H]1CC[C@]2(O)C(=O)CO [prelone]
fibroblast (HDF) proliferation [1, 5]: Qualitatively identical results

CNCc1ccc(-c2[nH]c3cc(F)cc4c3c2CCNC4=O)cc1 [rucaparib]
IL-1ß secretion induced by wound exudate (IL-1ß): reducing IL-1ß secretion
fibroblast-derived matrix (FDM) formation ([2]; presence of WE #78 (FIG. 9)): strong positive effect
cell proliferation under wound exudate-induced inhibition [1]: enhanced cell proliferation
HDF proliferation, PARP inhibitor plus PDGF [1]: even further enhanced by the addition of PDGF
fibroblast (HDF) proliferation [1, 4]: dose-dependent increase of HDF proliferation

O=C1O[C@H]([C@@H](O)CO)C(O)=C1O [vitamin C, ascorbic acid]
fibroblast-derived matrix (FDM/ECM) formation ([2]; absence of wound exudate): enhances both fibroblast proliferation in the fibroblast proliferation assay (also called 2D assay) and fibroblast-derived matrix (FDM) formation
fibroblast-derived matrix (FDM) formation [2, 6]: no effect on fibroblast proliferation in the 2D assay or fibroblast-derived matrix (FDM) formation in the 3D assay
fibroblast (HDF) proliferation [1, 7]: enhances HDF proliferation/ECM formation; also recorded: enhances both fibroblast proliferation
enhancement of PARP inhibitor effect on fibroblast proliferation ([1]; WE #43, different patient (FIG. 15)): strong and consistent synergistic effect could be confirmed; also recorded: synergistically enhance the PARP inhibitor compound effects
enhancement of PARP inhibitor effect on fibroblast proliferation ([1]; dexamethasone 3 nM, vitamin C 100 μg/ml, WE #78 (FIG. 14)): enhance the positive enhancing effect of the PARP antagonists; also recorded: synergistically enhance the PARP inhibitor compound effects
fibroblast (HDF) proliferation [1, 6]: no effect on HDF proliferation/ECM formation; also recorded: no effect on fibroblast proliferation in the 2D assay

Medroxyprogesterone
FDM formation, veliparib combined with glucocorticoid [2]: enhance the effect of veliparib on rescuing fibroblast-derived matrix (FDM) formation after wound exudate treatment
FDM formation, veliparib combined with glucocorticoid ([2]; listed as MED): enhance the effect of veliparib on rescuing FDM formation after WE treatment
fibroblast-derived matrix (FDM/ECM) formation ([2]; presence of wound exudate, WE not specified (FIG. 6: microscopy)): surprisingly enhances HDF proliferation and ECM formation
fibroblast (HDF) proliferation [1, 5]: Qualitatively identical results; also recorded: surprisingly enhances HDF proliferation and ECM formation; also recorded: effect was confirmed

TGF-ß: Transforming growth factor beta, protein growth factor
staining for α-SMA ([3]; absence of WE, veliparib 10 μM): increased the staining for the myofibroblast marker alpha-smooth muscle actin (α-SMA)
staining for α-SMA ([3]; presence of WE #78): does not induce α-SMA on its own; also recorded: did not induce α-SMA on its own

B1: PDGF: Platelet-derived growth factor, protein growth factor (Tonbo Biosciences) (protein, UniProt P01127 82-190, looked up)
Platelet-derived growth …: SLGSLTIAEPAMIAECKTRTEVFEISRRLIDRTNANFLVWPPCVEVQRCSGCCNNRNVQCRPTQVQLRPVQVRKIEIVRKKPIFKKATVTLEDHLACKCETVAAARPVT
modifications: PDGF-BB homodimer
HDF proliferation, PDGF added to talazoparib ([1]; PDGF 20 ng/ml + talazoparib 0.3 μM, WE #78 (FIG. 19)): further enhanced this recovery
fibroblast (HDF) proliferation [1, 7]: induces HDF proliferation; also recorded: enhances proliferation
fibroblast (HDF) proliferation [1, 4]: has no effect; also recorded: inactive; also recorded: without any effect
